Patent publication US20260294884A1 (Insilico Medicine IP Limited, priority 2023, published 2026)
Where “and” joins values, the source holds several entries; their conditions need not be identical. Equal values may be shown once. Read-outs that look alike come from different tables or passages of the source. Blank lines part the entries; values can stand above or below the compound they belong to.

Experiments:
Caco-2 cells = assay: Permeability, Caco-2 assay; format: in vitro ADME; settings: 37 °C; for Mean Papp A to B: Caco-2, pH 7.40, 2 hours
Description: Permeability of test compounds was determined in Caco-2 Assay. Caco-2 cells purchased from ATCC were seeded onto […] membranes (PET) in 96-well Corning Insert plates at 1×10^5 cells/cm^2, and refreshed medium every 4~5 days until to the 21st to 28th day for confluent cell monolayer formation. The transport buffer in the study was HBSS with 10.0 mM HEPES at pH 7.40±0.05. Test compound was tested at […] bi-directionally in duplicate. Digoxin was tested at 10.0 μM bi-directionally in duplicate, while nadolol and metoprolol were tested at 2.00 μM in A to B direction in duplicate. Final DMSO concentration was adjusted to less than 1%. The plate was incubated for 2 hours in CO2 incubator at 37±1° C., with 5% CO2 at saturated humidity without shaking. And all samples after mixed with acetonitrile containing internal standard were centrifuged at 3200×g for 10 min. For nadolol and metoprolol, 200 μL supernatant solution was diluted with 600 μL ultra-pure water for LC-MS/MS analysis. For digoxin and test compounds, 200 μL supernatant solution was diluted with 200 μL ultra-pure water for LC-MS/MS analysis. Concentrations of test and control compounds in starting solution, donor solution, and receiver solution were quantified by LC-MS/MS methodologies, using peak area ratio of analyte/internal standard. After transport assay, lucifer yellow rejection assay was applied to determine the Caco-2 cell monolayer integrity.

[1] = tested on: LD1-0009-362391 PDX model; parameters: species or system NCG Mice; settings: mouse, in vivo
Description: About 50-90 mg tumor pieces were implanted subcutaneously on the right flank of each mouse. The treatments were started when the mean tumor size reaches approximately 150 (100-300) mm^3. The tumor size was measured in two dimensions using a caliper, and the volume was expressed in mm^3 using the formula: V=0.5 a×b^2 where a and b are the long and short diameters of the tumor, respectively.
(§1) Mice were assigned into groups using randomized block design based on their tumor volumes. The test article administration and the animal numbers in each study group are shown in the following experimental design table 5, the PDX model information are shown in the table 6.
The PDX model is derived from a patient with invasive breast carcinoma, who received and progressed on multiple prior lines of treatment including docetaxel, epirubicin, cyclophosphamide, gemcitabine, lobaplatin, tamoxifen, nab-paclitaxel, cisplatin, capecitabine, palbociclib and letrozole.
(§2) For routine monitoring, all study animals were monitored for not only tumor growth but also behavior such as mobility, food, and water consumption (by cage side checking only), body weight (BW), eye/hair matting and any other abnormal effect. Any mortality and/or abnormal clinical signs were recorded.
The measurement of tumor size was conducted twice a week. The tumor size was measured in two dimensions using a caliper, and the volume will be expressed in mm^3 using the formula: V=0.5a×b^2 where a and b are the long and short diameters of the tumor, respectively. The tumor sizes are used for the calculations of T/C values. The T/C value (in percent) is an indication of antitumor efficacy, T/C=RTV of treated group/RTV of Control group, RTV=Vt/V0, Vt is the mean volume after treatment on a given day, V0 is the mean tumor volume at the beginning of administration. Meanwhile the tumor volume is used for calculation of TGI of each group according to the following formula: When Tti−Tt0 >0, TGI (%)=[1−(Tti−Tt0)/(Vci−Vc0)]×100; when Tti−Tt0<0, TGI (%)=[1−(Tti−Tt0)/Tt0]×100. […]

[2] = tested on: ER+/KAT6a^high ZR-75-1 breast cancer cell line; assay: In vitro cytotoxicity in ER+/KAT6a^high ZR-75-1 breast cancer cell line (CTG assay, 14 days); format: cell-based, Human
Description: Single agent experiments (n=3 per each compound) were performed to obtain the IC10, IC25, IC50 and IC75 values for each drug to be used hereafter in the combo treatment.
The cytotoxicity was evaluated by CTG assay upon 14 days of treatment and stimulation with 1 nM E2. Statistical analysis was performed by 2 way ANOVA Tukey's multiple comparison test (* 0.01<p<0.05).
Human ER+/KAT6A^high breast cancer cell line ZR-75-1 (ATCC, Virginia, US) was cultured in RPMI 1640 medium (Gibco, Life Technologies, Carlsbad, CA, USA) supplemented with 10% fetal bovine serum (FBS)(Sigma, Saint Louis, CA, USA). All cells were incubated at 37° C., 5% CO2, 80-95% relative humidity.
Stock solutions were added at appropriate concentration in culture medium before the addition to cells.
For the cytotoxicity assay, cells were previously starved 48 h in RPMI 1640 no phenol red supplemented with 8% charcoal stripped FBS, and then seeded at appropriate density (2000 cells/well) in starvation media the day before starting the treatment. […] Concentration range was previously identified in single agent cytotoxic assay for the same time points in order to include in the combination experiment IC10, IC25, IC50 and IC75 values for each drug. After 14 days of treatment, CellTiter-Glo® 2.0 Cell Viability Assay (CTG)(Promega, Madison, WI, USA) was added to assess cell viability. Luminescence was measured 10 min later using Tecan Infinite M200 (Tecan Trading AG, Switzerland).

[3] = Body weight change in PDX study in NCG mice; format: in vivo; settings: P.O QD × 27; all mice
From the text: as §1, §2
Body weights of all animals were measured twice a week throughout the study. Body weight change, expressed in %, is calculated using the following formula: BWL (%)=(BWi−BW0)/BW0×100, BWi is the body weight, BW0 is the bodyweight on the first day of treatment.
The statistical software GraphPad Prism was used to analyze the difference in tumor volume and body weight between the treatment group and the vehicle control group. All the data is described as Mean±SEM, and one-way ANOVA analysis of variance was performed.

[4] = single agent, 1 nM E2, read-out: IC50

Mean Papp A to B (Caco-2 cells): 3.47 10^-6 cm/s
Structure (SMILES): COc1cccc(OC)c1S(=O)(=O)Nc1noc2cc(Cn3cccn3)c3c(c12)OCCCC3 [Compound 19, N-(6-((1H-pyrazol-1-yl)methyl)-2,3,4,5,9,10-hexahydrooxepino [3′,2′: 5,6]benzo[1,2-d]isoxazol-10-yl)-2,6-dimethoxybenzenesulfonamide]

Mean Papp A to B (Caco-2 cells): 1.30 10^-6 cm/s
Structure (SMILES): COc1cccc(OC)c1S(=O)(=O)Nc1noc2cc(Oc3ccccn3)c3c(c12)OCC3 [Compound 23, 2,6-dimethoxy-N-(4-(pyridin-2-yloxy)-2,3-dihydrobenzofuro[7,6-d]isoxazol-8-yl)benzenesulfonamide]

Efflux Ratio (Caco-2 cells; Caco-2, bi-directional, pH 7.40, 2 hours): 3.2
Mean Papp A to B (Caco-2 cells): 12.9 10^-6 cm/s
Structure (SMILES): COc1cccc(OC)c1S(=O)(=O)Nc1noc2cc(Oc3ccccn3)c3c(c12)OCCC3 [Compound 24, 2,6-dimethoxy-N-(5-(pyridin-2-yloxy)-3,4-dihydro-2H-chromeno[8,7-d]isoxazol-9-yl)benzenesulfonamide]

Mean Papp A to B (Caco-2 cells): 2.38 10^-6 cm/s
Structure (SMILES): COc1ccnc(OC)c1S(=O)(=O)Nc1noc2cc(Oc3ccccn3)c3c(c12)OCCC3 [Compound 28, 2,4-dimethoxy-N-(5-(pyridin-2-yloxy)-3,4-dihydro-2H-chromeno[8,7-d]isoxazol-9-yl)pyridine-3-sulfonamide]

Mean Papp A to B (Caco-2 cells): 3.53 10^-6 cm/s
Structure (SMILES): COc1cccc(OC)c1S(=O)(=O)Nc1noc2cc(Cc3nccs3)c3c(c12)OCCC3 [Compound 47]

Mean Papp A to B (Caco-2 cells): 5.28 10^-6 cm/s
Structure (SMILES): COc1ccccc1S(=O)(=O)Nc1noc2cc(Oc3nccs3)cc(OCF)c12 [Compound 56, N-(4-(fluoromethoxy)-6-(thiazol-2-yloxy)benzo[d]isoxazol-3-yl)-2-methoxybenzenesulfonamide]

Mean Papp A to B (Caco-2 cells): 13.7 10^-6 cm/s
Structure (SMILES): COc1ccccc1S(=O)(=O)Nc1noc2cc(Oc3nccs3)cc(OC)c12 [Compound 60, 2-methoxy-N-(4-methoxy-6-(thiazol-2-yloxy)benzo[d]isoxazol-3-yl)benzenesulfonamide]

Mean Papp A to B (Caco-2 cells): 9.38 10^-6 cm/s
Structure (SMILES): COc1ccccc1S(=O)(=O)Nc1noc2cc(Oc3nccs3)c3c(c12)OCCC3 [Compound 61, 2-methoxy-N-(5-(thiazol-2-yloxy)-3,4-dihydro-2H-chromeno[8,7-d]isoxazol-9-yl)benzenesulfonamide]

Mean Papp A to B (Caco-2 cells): 10.6 10^-6 cm/s
Structure (SMILES): COc1cccc(OC)c1S(=O)(=O)Nc1noc2cc(Oc3nccs3)c3c(c12)OCCCC3 [Compound 62, 2,6-dimethoxy-N-(6-(thiazol-2-yloxy)-2,3,4,5,9,10-hexahydrooxepino [3′,2′: 5,6]benzo[1,2-d]isoxazol-10-yl)benzenesulfonamide]

Mean Papp A to B (Caco-2 cells): 6.48 10^-6 cm/s
Structure (SMILES): COc1ccccc1S(=O)(=O)Nc1noc2cc(Oc3nccs3)c3c(c12)OCCCC3 [Compound 63]

Mean Papp A to B (Caco-2 cells): 9.00 10^-6 cm/s
Structure (SMILES): COc1cc(C)nc(OC)c1S(=O)(=O)Nc1noc2cc(Oc3nccs3)c3c(c12)OCCCC3 [Compound 64]

Second part, the compound before the results:

Structure (SMILES): COc1cccc(OC)c1S(=O)(=O)Nc1noc2cc(Oc3ccccn3)cc(OC)c12 [Compound 9, 2,6-dimethoxy-N-(4-methoxy-6-(pyridin-2-yloxy)benzo[d]isoxazol-3-yl)benzenesulfonamide]
Mean Papp A to B (Caco-2 cells): 11.8 10^-6 cm/s

Structure (SMILES): COc1cccc(OC)c1S(=O)(=O)Nc1noc2cc(Cn3cccn3)c3c(c12)OCCC3 [Compound 14, N-(5-((1H-pyrazol-1-yl)methyl)-3,4-dihydro-2H-chromeno[8,7-d]isoxazol-9-yl)-2,6-dimethoxybenzenesulfonamide]
Mean Papp A to B (Caco-2 cells): 0.439 10^-6 cm/s

Structure (SMILES): COc1cccc(OC)c1S(=O)(=O)Nc1noc2cc(Oc3ccccn3)cc(OC(F)F)c12 [Compound 22, N-(4-(difluoromethoxy)-6-(pyridin-2-yloxy)benzo[d]isoxazol-3-yl)-2,6-dimethoxybenzenesulfonamide]
Mean Papp A to B (Caco-2 cells): 3.45 10^-6 cm/s

Structure (SMILES): COc1cccc(OC)c1S(=O)(=O)Nc1noc2cc(Cc3ccccn3)c3c(c12)OCCC3 [Compound 46, 2,6-dimethoxy-N-(5-(pyridin-2-ylmethyl)-3,4-dihydro-2H-chromeno[8,7-d]isoxazol-9-yl)benzenesulfonamide]
Mean Papp A to B (Caco-2 cells): 2.66 10^-6 cm/s

Structure (SMILES): COc1cc(C)nc(OC)c1S(=O)(=O)Nc1noc2cc(Oc3nccs3)cc(OCF)c12 [Compound 55, N-(4-(fluoromethoxy)-6-(thiazol-2-yloxy)benzo[d]isoxazol-3-yl)-2,4-dimethoxy-6-methylpyridine-3-sulfonamide]
Mean Papp A to B (Caco-2 cells): 1.46 10^-6 cm/s

Structure (SMILES): COc1cc(C)nc(OC)c1S(=O)(=O)Nc1noc2cc(Oc3nccs3)cc(OC)c12 [Compound 57, 2,4-dimethoxy-N-(4-methoxy-6-(thiazol-2-yloxy)benzo[d]isoxazol-3-yl)-6-methylpyridine-3-sulfonamide]
TGI [1]: 67.7% and 83.8%
anti-tumor activity [1]: potent and dose-dependent anti-tumor activity
mean endpoint TV (tumor volume) [1]: 239 mm^3 and 189 mm^3
IC50 ([2]; combination experiments, compound alone, 1 nM E2 (FIG. 3B), read-out: IC50 of dose-response curve, used alone (combination experiments)): 3.78 nM
IC10 ([2]; single agent, 1 nM E2): 0.3 nM
IC25 ([2]; single agent, 1 nM E2): 1.2 nM
IC75 ([2]; single agent, 1 nM E2): 15 nM
IC50 [2, 4]: 4 nM
IC50 ([2]; with elacestrant (IC25, 56 nM), 1 nM E2 (FIG. 3B), read-out: IC50 of dose-response curve, in combination with elacestrant): 0.8 nM
Mean Papp A to B (Caco-2 cells): 3.38 10^-6 cm/s
body weight [3]: maintained the body weight well

Structure (SMILES): COc1cccc(OC)c1S(=O)(=O)Nc1noc2cc(Oc3nccs3)cc(OC)c12 [Compound 59, 2,6-dimethoxy-N-(4-methoxy-6-(thiazol-2-yloxy)benzo[d]isoxazol-3-yl)benzenesulfonamide]
Mean Papp A to B (Caco-2 cells): 6.20 10^-6 cm/s

Structure (SMILES): COc1ccccc1S(=O)(=O)Nc1noc2cc(Cn3cccn3)cc(OC)c12 [Compound 70]
body weight [3]: maintained the body weight well

Structure (SMILES): CCNCCc1ccc(CN(CC)c2cc(OC)ccc2[C@@H]2CCc3cc(O)ccc3C2)cc1 [elacestrant, reference compound]
IC50 ([2]; elacestrant single agent, 1 nM E2, read-out: IC50 (cytotoxic action)): 260 nM
IC25 ([2]; elacestrant, 1 nM E2): 56 nM
IC10 ([2]; single agent, 1 nM E2): 10 nM
IC25 ([2]; single agent, 1 nM E2): 56 nM
IC75 ([2]; single agent, 1 nM E2, non clinically relevant dose): 1430 nM
IC50 [2, 4]: 260 nM
